From patent US20220280661A1, “GLUCOCORTICOID RECEPTOR RADIOLIGANDS AND METHODS FOR THEIR PREPARATION AND USE” (The Regents of the University of California, priority 2019, published 2022)
Each block holds one molecule with its values, some of them ahead of it.

Legend:
[1] = biological target: T1, ER (Homo sapiens, UniProt P03372); experiment: 3H-ligand displacement assay on cells, ER (MCF7); type: binding
T1 construct: MCF7 (PR, ER); endogenous in cells; host or cells: MCF7
T1 sequence (P03372 1-595): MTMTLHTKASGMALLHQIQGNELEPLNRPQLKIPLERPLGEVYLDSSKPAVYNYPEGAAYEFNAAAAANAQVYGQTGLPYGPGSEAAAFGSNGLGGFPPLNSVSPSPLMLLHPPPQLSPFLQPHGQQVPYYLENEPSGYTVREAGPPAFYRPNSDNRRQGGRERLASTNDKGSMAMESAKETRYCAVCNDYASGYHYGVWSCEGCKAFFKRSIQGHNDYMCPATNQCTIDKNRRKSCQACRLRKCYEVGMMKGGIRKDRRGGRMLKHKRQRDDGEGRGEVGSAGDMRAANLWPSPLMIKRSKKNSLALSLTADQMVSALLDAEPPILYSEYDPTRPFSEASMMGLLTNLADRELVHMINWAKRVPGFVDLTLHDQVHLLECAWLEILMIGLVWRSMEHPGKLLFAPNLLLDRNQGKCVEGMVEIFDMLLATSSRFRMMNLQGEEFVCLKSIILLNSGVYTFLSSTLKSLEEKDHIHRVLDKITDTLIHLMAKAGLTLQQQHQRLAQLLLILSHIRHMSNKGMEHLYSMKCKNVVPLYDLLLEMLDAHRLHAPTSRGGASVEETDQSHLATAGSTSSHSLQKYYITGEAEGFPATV
Method: The affinity of YJH08 for GR and the other type 1 subfamily 3 nuclear hormone receptors was evaluated using ^3H-ligand displacement assays on cells. The Kd for subfamily 3 class C nuclear hormone receptors was determined on cells by displacing ^3H-steroidal agonists for the respective receptor. […] The Kd was determined using the following cell lines: DU145 (GR), LNCaP-AR (AR), MCF7 (PR, ER), and HEK293 transiently overexpressing full length human MR.
The cold ligands and ^3H-steroids were co-incubated on cells in PBS at room temperature for one hour. Following incubation, the cells were washed twice with ice cold PBS and the unbound activity was retained for analysis. The cells were lysed with 1 mL of 1M NaOH and collected. Bound and unbound fractions were counted in a liquid scintillation counter and expressed as a percentage of the total activity added per equal relative number of cells. […] These experiments were performed at three concentrations of experimental ligand (1 pM, 100 nM and 10 μM), and a linear extrapolation was used to subtract the non-specific component of binding from each treatment condition. The specific binding component was plotted against the log of the competing ligand and curve fit using a non-linear regression algorithm with PRISM software.

[2] = blood collected 30 minutes post injection
Method: Serum Stability Studies. Mice were euthanized, received radiotracer (30 MBq in 100-150 μL formulation) via tail injection, and dissected at dedicated time points post injection. The blood was collected and an aliquot (50 uL) was mixed with CH3CN (50 uL). The serum proteins were precipitated out and followed by a centrifugation (10000 rpm for 5 min). The cleared supernatant (50 uL) was collected and further analyzed by RAD-iTLC.
To confirm stability, blood was collected at 30 minutes post injection, a time point after which specific binding in vivo with (±)—^18F-YJH08 occurred.

[3] = Dynamic PET scan of [18F]-YJH08, time activity curves; type: in vivo, mouse; conditions: two phase exponential decay fit; C57B16/J mice
Method: To understand the biodistribution of [18F]-YJH08 in vivo, a dynamic PET scan over 60 min was first conducted in immunocompetent male C57B16/J mice (FIG. 3A). Prior to injection, the formulated dose of [18F]-YJH08 was passed through a sterile 0.22 μm membrane. Approximately 300 μCi was injected via tail vein in a volume of 100-150 μL per mouse. After a given period of uptake time, the mice were anesthetized with 2-3% isoflurane, and imaged with a Siemens Inveon micro PET/CT. For dynamic acquisitions, the mice were anesthetized prior to injection, and injected while positioned on the scanner bed. All imaging data was decay corrected, reconstructed, and analyzed with AMIDE software. Maximum intensity projections (MIPs) were generated by AMIDE software. Regions of interest (ROI) were manually placed to calculate SUV data from the dynamic acquisitions.
First, the radiotracer rapidly cleared from serum, and fitting the data with a two phase exponential decay curve estimated the fast and slow half-lives to be ˜21 sec and ˜760 sec, respectively. Moreover, liver uptake was prominent at very early time points post injection (0-300 sec), with continuous washout from ˜300-3600 sec.

[4] = Post mortem biodistribution of [18F]-YJH08 at 30, 60, 90 min; type: in vivo, mouse; conditions: C57B16/J mice
Method: For a broader survey of radiotracer biodistribution post mortem, mice were euthanized after radiotracer injection with CO2(g) asphyxiation and dissected at dedicated time points post injection. The blood and tissues were removed, washed, dried and weighed. The activity of each tissue was measured with a gamma counter. All data was decay corrected. PRISM software was used to express a percentage (% ID/g) of the injected dose per gram of tissue. […] Table 2 provides a tabular representation of the biodistribution data collected 30, 60, 90 minutes after injection of [18F]-YJH08 in C57B16/J mice. The data are represented as mean standard deviation of the % ID/g.

Kd [1]: 19 µM
SMILES: COc1cccc2c1-c1ccc3c(c1C(Cc1ccc(F)cc1)O2)C(C)=CC(C)(C)N3 (racemic) [YJH08, 5-(4-fluorobenzyl)-10-methoxy-2,2,4-trimethyl-2,5-dihydro-1H-chromeno[3,4-f]quinoline]

SMILES: CC1=CC(C)(C)Nc2ccc3c(c21)C(Cc1ccc(F)cc1)Oc1cccc(O[11CH3])c1-3 (racemic) [(±)-^11C-YJH08]
radiotracer stable in blood (ITLC) [2]: > 90%

SMILES: COc1cccc2c1-c1ccc3c(c1C(Cc1ccc([18F])cc1)O2)C(C)=CC(C)(C)N3 (racemic) [[18F]-YJH08, [^18F]-5-(4-fluorobenzyl)-10-methoxy-2,2,4-trimethyl-2,5-dihydro-1H-chromeno[3,4-f]quinoline]
serum clearance fast half-life [3]: ~0.35 min | serum clearance slow half-life [3]: ~12.7 min | radiotracer uptake, Adrenal Gland ([4]; 30 min after injection): 20.02 ± 2.21 % ID/g | radiotracer uptake, Blood ([4]; 30 min after injection): 0.85 ± 0.1 % ID/g | radiotracer uptake, Bone ([4]; 30 min after injection): 1.11 ± 0.15 % ID/g | radiotracer uptake, Brain ([4]; 30 min after injection): 1.68 ± 0.14 % ID/g | radiotracer uptake, Heart ([4]; 30 min after injection): 3.04 ± 0.75 % ID/g | radiotracer uptake, Kidney ([4]; 30 min after injection): 4.5 ± 0.5 % ID/g | radiotracer uptake, Large intestine ([4]; 30 min after injection): 1.33 ± 0.35 % ID/g | radiotracer uptake, Liver ([4]; 30 min after injection): 11.03 ± 0.89 % ID/g | radiotracer uptake, Lung ([4]; 30 min after injection): 2.65 ± 0.19 % ID/g | radiotracer uptake, Muscle ([4]; 30 min after injection): 1.49 ± 0.2 % ID/g | radiotracer uptake, Pancreas ([4]; 30 min after injection): 4.5 ± 0.15 % ID/g | radiotracer uptake, Small intestine ([4]; 30 min after injection): 19.05 ± 3.27 % ID/g | radiotracer uptake, Spleen ([4]; 30 min after injection): 1.59 ± 0.13 % ID/g | radiotracer uptake, Stomach ([4]; 30 min after injection): 1.88 ± 0.96 % ID/g | radiotracer uptake, Supraspinal BAT ([4]; 30 min after injection): 14.41 ± 3.42 % ID/g | radiotracer uptake, Adrenal Gland ([4]; 60 min after injection): 9.43 ± 0.08 % ID/g | radiotracer uptake, Blood ([4]; 60 min after injection): 0.57 ± 0.02 % ID/g | radiotracer uptake, Bone ([4]; 60 min after injection): 0.61 ± 0.15 % ID/g | radiotracer uptake, Brain ([4]; 60 min after injection): 1.33 ± 0.06 % ID/g | radiotracer uptake, Heart ([4]; 60 min after injection): 1.33 ± 0.21 % ID/g | radiotracer uptake, Kidney ([4]; 60 min after injection): 2.35 ± 0.34 % ID/g | radiotracer uptake, Large intestine ([4]; 60 min after injection): 1.23 ± 0.43 % ID/g | radiotracer uptake, Liver ([4]; 60 min after injection): 7.7 ± 0.69 % ID/g | radiotracer uptake, Lung ([4]; 60 min after injection): 2.02 ± 0.29 % ID/g | radiotracer uptake, Muscle ([4]; 60 min after injection): 1.15 ± 0.03 % ID/g | radiotracer uptake, Pancreas ([4]; 60 min after injection): 2.63 ± 0.05 % ID/g | radiotracer uptake, Small intestine ([4]; 60 min after injection): 8.61 ± 2.68 % ID/g | radiotracer uptake, Spleen ([4]; 60 min after injection): 0.83 ± 0.02 % ID/g | radiotracer uptake, Stomach ([4]; 60 min after injection): 1.63 ± 0.92 % ID/g | radiotracer uptake, Supraspinal BAT ([4]; 60 min after injection): 16.4 ± 4.93 % ID/g | radiotracer uptake, Adrenal Gland ([4]; 90 min after injection): 5.72 ± 2.32 % ID/g | radiotracer uptake, Blood ([4]; 90 min after injection): 0.49 ± 0.06 % ID/g | radiotracer uptake, Bone ([4]; 90 min after injection): 0.58 ± 0.16 % ID/g | radiotracer uptake, Brain ([4]; 90 min after injection): 0.97 ± 0.03 % ID/g | radiotracer uptake, Heart ([4]; 90 min after injection): 0.92 ± 0.14 % ID/g | radiotracer uptake, Kidney ([4]; 90 min after injection): 1.86 ± 0.26 % ID/g | radiotracer uptake, Large intestine ([4]; 90 min after injection): 6.67 ± 4.73 % ID/g | radiotracer uptake, Liver ([4]; 90 min after injection): 8.43 ± 1.38 % ID/g | radiotracer uptake, Lung ([4]; 90 min after injection): 1.39 ± 0.1 % ID/g | radiotracer uptake, Muscle ([4]; 90 min after injection): 0.85 ± 0.18 % ID/g | radiotracer uptake, Pancreas ([4]; 90 min after injection): 1.9 ± 0.41 % ID/g | radiotracer uptake, Small intestine ([4]; 90 min after injection): 7.67 ± 2.34 % ID/g | radiotracer uptake, Spleen ([4]; 90 min after injection): 0.74 ± 0.15 % ID/g | radiotracer uptake, Stomach ([4]; 90 min after injection): 2.61 ± 1.54 % ID/g | radiotracer uptake, Supraspinal BAT ([4]; 90 min after injection): 14.58 ± 1.91 % ID/g
